Assay results from PMC11157048 (Frontiers in Pharmacology, 2024).
Read-outs that look alike come from different tables or passages of the source. Each block holds one compound with its values, some of them ahead of it.

Assays:
[1] = test system: aumolertinib metabolism in human liver microsomes; assay: Inhibition of aumolertinib metabolism in human liver microsomes (IC50, Ki); assay type: in vitro ADME; details: human, human liver microsomes, probe aumolertinib 20 μM
Protocol: (§1) When screening for inhibitors, the amount of RLM in the system and the reaction time were optimized and set to 0.5 mg/mL and 30 min, respectively. The concentration of the inhibitor was set at 100 μM. […] The above mixture was pre-incubated at 37 °C for 5 min, and then 1 mM NADPH was added to initiate the reaction, and incubated for another 30 min. Afterwards, 400 μL of cold acetonitrile and 20 μL of diazepam (500 ng/mL) were added to the system to stop the reaction. After vortexing for 2 min, the mixture is centrifuged at 16,200 g for 10 min and the supernatant is subjected to analysis by UPLC-MS/MS for the detection of analytes.

[2] = test system: human liver microsomes (HLM); assay: as above; assay type: in vitro ADME; details: HLM
Protocol: as §1

CYP3A4.1 = CYP3A4.1 (Homo sapiens, UniProt P08684)
Sequence of CYP3A4.1 (P08684 whole entry): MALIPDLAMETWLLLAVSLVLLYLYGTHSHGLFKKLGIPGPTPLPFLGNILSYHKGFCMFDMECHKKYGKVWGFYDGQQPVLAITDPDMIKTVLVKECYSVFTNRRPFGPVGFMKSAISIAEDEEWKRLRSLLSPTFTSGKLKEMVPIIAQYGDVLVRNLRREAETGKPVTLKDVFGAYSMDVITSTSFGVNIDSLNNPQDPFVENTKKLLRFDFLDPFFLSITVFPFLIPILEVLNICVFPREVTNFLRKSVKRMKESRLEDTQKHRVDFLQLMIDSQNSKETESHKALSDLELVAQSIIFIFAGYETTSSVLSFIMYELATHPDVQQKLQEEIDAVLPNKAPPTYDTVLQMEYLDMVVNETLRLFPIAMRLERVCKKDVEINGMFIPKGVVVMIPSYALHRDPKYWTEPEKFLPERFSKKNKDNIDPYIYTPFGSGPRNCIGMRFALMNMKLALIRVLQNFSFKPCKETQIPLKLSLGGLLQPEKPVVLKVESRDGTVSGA

[3] = test system: aumolertinib metabolism in rat liver microsomes; assay: in vitro; details: probe aumolertinib 25 μM
Protocol: as §1

[4] = test system: rat liver microsomes (RLM); assay: Inhibition of aumolertinib metabolism in rat liver microsomes (screen, IC50, Ki)
Protocol: as §1

[5] = rat, in vivo, po, 11 mg/kg
[6] = mouse, in vivo, po
[7] = design: method as in Zhou et al., 2021; Liu et al., 2022a; Liu et al., 2022b; details: ref Zhou et al., 2021, Liu et al., 2022a, 2022b; cited from earlier work
[8] = Pharmacokinetics in AAV8-CYP3A4*1 mice
[9] = aumolertinib 16.5 mg/kg oral alone (Aum)
[10] = carvedilol 7.5 mg/kg 0.5 h before aumolertinib 16.5 mg/kg oral (Car+Aum)

IC50 at 30 min [1]: 12.7 ± 0.59 µM
inhibition mechanism [2]: non-competitive and competitive mixed
Ki ([2]; Lineweaver-Burk secondary plot): 8.81 µM
αKi ([2]; Lineweaver-Burk secondary plot): 47.76 µM
inhibition mechanism (CYP3A4.1): competitively inhibited
IC50 at 30 min [3]: 27.3 ± 2.52 µM
inhibition mechanism [4]: non-competitive and competitive mixed
Ki ([4]; Lineweaver-Burk secondary plot): 16.7 µM
αKi ([4]; Lineweaver-Burk secondary plot): 51.66 µM
SMILES: COc1ccccc1OCCNCC(O)COc1cccc2[nH]c3ccccc3c12 (stereo not shown) [Carvedilol]

SMILES: C=CC(=O)Nc1cc(Nc2nccc(-c3cn(C4CC4)c4ccccc34)n2)c(OC)cc1N(C)CCNC [HAS-719]
CLz/F [5]: 5750.5 ± 2617.5 mL/min/kg
Vz/F [5]: 1,913.68 ± 1,058.91 L/kg
t1/2z [5]: 3.69 ± 0.57 h
AUC(0-t) [6]: 429.91 ± 178.00 ng·h/mL
AUC(0-∞) [6]: 572.38 ± 354.11 ng·h/mL
CLz/F [6]: 586.7 ± 249.8 mL/min/kg
Cmax [6]: 23.01 ± 11.89 ng/mL
Tmax [6]: 14.29 ± 13.44 h
Vz/F [6]: 773.46±1,086.45 L/kg
t1/2z [6]: 14.62 ± 18.23 h
plasma exposure relative to the parent drug [7]: 40%
AUC(0-t) [8, 9]: 905.88 ± 375.90 ng·h/mL
AUC(0-∞) [8, 9]: 908.18 ± 374.69 ng·h/mL
CLz/F [8, 9]: 335 ± 128 mL/min/kg
Cmax [8, 9]: 47.06 ± 20.43 ng/mL
Tmax [8, 9]: 10.71 ± 9.53 h
Vz/F [8, 9]: 113.97 ± 104.36 L/kg
t1/2z [8, 9]: 3.80 ± 2.94 h
AUC(0-t) [8, 10]: 663.56 ± 198.24 ng·h/mL
AUC(0-∞) [8, 10]: 669.24 ± 196.18 ng·h/mL
CLz/F [8, 10]: 423.8 ± 103 mL/min/kg
Cmax [8, 10]: 34.97 ± 15.02 ng/mL
Tmax [8, 10]: 17.86 ± 10.53 h
Vz/F [8, 10]: 203.88 ± 121.79 L/kg
t1/2z [8, 10]: 5.34 ± 2.61 h

SMILES: CCCc1nc2c(C)cc(-c3nc4ccccc4n3C)cc2n1Cc1ccc(-c2ccccc2C(=O)O)cc1 [Telmisartan]
α [2]: 0.59
α ([2]; listed as telmisartan): < 1
IC50 at 30 min [3]: 12.8 ± 0.18 µM
inhibition mechanism [4]: mixed (non-competitive and uncompetitive)
α [4]: 0.54
α ([4]; listed as telmisartan): < 1
